Here are results for 1 compound from EP3263567A1, “CARBOXAMIDE-SUBSTITUTED PYRAZOLES AND TRI(HETERO)ARYL-PYRAZOLES FOR USE IN METHODS OF TREATING AND / OR PREVENTING CARDIOVASCULAR DISEASES AND / OR COMORBIDITIES THEREOF” (AiCuris Anti-infective Cures GmbH, priority 2016, dated 2018).

The test system of this series is Beagle dogs. The series can be described thus: 4-week beagle dog experiment, non-invasive telemetry (ECG, heart rate, blood pressure). Type of series: in vivo. On the procedure: [drawing 93] i.e. 4-[5-[3-Chloro-5-(trifluoromethoxy)phenyl]-1-(pyridin-3-yl)-1H-pyrazol-3-yl]-5,6-dihydro-7H-pyrrolo[3,4-d]pyrimidin-7-one, was administered in a 4-week beagle dog experiment with integrated non-invasive telemetric electrocardiography (ECG) measurements for determining its cardiovascular effects; specifically its effects on the heart rate.
32 Beagle dogs (16 males and 16 females) with parameters in the normal range were tested for cardiovascular effects of Compound A administration and divided into the study groups indicated below.
The test compound A-formulation of the appropriate concentration was administered by oral administration at a constant administration volume/kg b.w.
• Groups 1 and 4: Twice daily at an 8-hour interval for 28 consecutive days. • Groups 2 to 3: Once daily for 28 consecutive days.
Telemetry parameters were monitored at the following times: • Predose and in test week 4: All 32 animals included in this study. • At the end of the recovery period in test week 8: All 8 recovery animals.
Parameters were monitored telemetrically with the EMKA Technologies System continuously starting approximately 24 hours prior to the first treatment (baseline; pre-dose values) and for approximately 24 hours in test week 4 and at the end of the recovery period in test week 8. The dogs were habituated and trained for wearing the jackets equipped with the telemetry transmitter and air-filled cuff placed on their tail.
The following telemetry parameters were determined: • Peripheral arterial blood pressure in the tail (blood flow occlusion using an air filled cuff) • Heart rate • Electrocardiography (QRS, QT, PQ, RR) • Respiration (respiratory inductive plethysmography; belts were placed around the thorax and abdomen) • Skin temperature • Physical activity.
The report includes the data recorded at the following intervals: • Pre-dose: Every 4 hours after start of recording (7 (Baseline; approx. 24 hours) tracings per animal) • Test week 4: Approx. 0, 1, 2, 6, and 24 hours after (Start of treatment to 24 hours post the 1 st administration of the day treatment relating to first dosing of the day) • At the end of the recovery period in Every 4 hours after start of recording (7 test week 8: tracings per animal)
The electrocardiogram was visually assessed for any abnormalities of the electrical complexes (i.e. arrhythmias, interval prolongations). In addition, the following parameters were evaluated:
Furthermore, the QTc-values were calculated according to the following Bazett-formula: QTc = (QT [sec])/(sqrt((R−R distance[sec]))) [formula]

Setting [1] is: 3, 10 or 2 x 50 mg/kg b.w./day oral, test week 4.

Entries after “also recorded” stand apart in the source; their conditions may differ. Some results are limits rather than exact numbers.

Take `O=C1NCc2c1ncnc2-c1cc(-c2cc(Cl)cc(OC(F)(F)F)c2)n(-c2cccnc2)n1` [Compound A, 4-[5-[3-Chloro-5-(trifluoromethoxy)phenyl]-1-(pyridin-3-yl)-1H-pyrazol-3-yl]-5,6-dihydro-7H-pyrrolo[3,4-d]pyrimidin-7-one]: the “start of telemetric changes after last administration” value (1st evaluated telemetric time-point, test week 4) is not above 5 min. Under “3, 10 or 2 x 50 mg/kg b.w./day oral, 4 weeks”, the “effect on QTc interval” value is given as “no adverse effects on QTc-interval; also recorded: no effect on QTc; also recorded: No influence”. Moreover, under setting [1], the “prolonged QT interval” value is not above 50% and the “prolonged RR interval” value is not above 140%. Further, under “3, 10 or 2 x 50 mg/kg b.w./day oral, test week 4, compared to control group”, the decreased heart rate was not above 50%. The “severe bradycardia or atrial fibrillation” value (beagle dog study) is “no signs of too much slowing of the heart rate (severe bradycardia) nor atrial fibrillation”. For the same compound, the “telemetric changes lasting until, after administration” value (end of telemetric measurement, test week 4) was 24 h. For the same compound, the “influence on systolic and diastolic blood pressures” value (oral, 4 weeks) is “No influence”. The “recovery of telemetric changes after 4-week treatment-free recovery period” value (week 8, high dose group 2 x 50 mg/kg b.w./day) is given as “full recovery; also recorded: completely subsided”.
